From US20180371551A1, “MAT2A INHIBITORS FOR TREATING MTAP NULL CANCER” (Agios Pharmaceuticals, Inc., priority 2015, published 2018)

Legend:
PRMT5 = biological target: T1, PRMT5 (Homo sapiens, UniProt O14744); assay: N-methyltransferase in vitro activity assay; type: biochemical
T1 construct: purchased Eurofins CEREP Panlabs
Method: MTA has been reported to inhibit activity of protein methyltransferases (Enouf et al., 1979). To test this notion directly, we performed an in vitro biochemical screen assessing enzyme activity of 33 different N-methyltransferases following treatment with 10 μM and 100 μM MTA (FIG. 4A). […] Next, we analyzed the MTA Ki for PRMT5, PRMT4, and a diverse subset of methyltransferases (FIG. 4C). In vitro screening of methyltransferase inhibition by MTA, as well as SAM Km measurements, was conducted using a panel of methyltransferase assays at Eurofins CEREP Panlabs.

[1] = system: HCT116 MTAP wt vs. HCT116 MTAP−/− cells; assay: EPZ015666 dose response, growth of HCT116 isogenic pair; type: cell-based; settings: 5 days, titrated from 20 μM top dose
Excerpt: (§1) FIGS. 2A-F. PRMT5 is selectively essential in MTAP-null cells upon genetic ablation but not pharmacologic targeting. Immunoblot analysis of the indicated proteins in HCT116 MTAP^−/− and HCT116 MTAP wt cells stably expressing PRMT5 shRNA and p-LVX empty vector control (EV). (B) PRMT5 is selectively essential in MTAP-null cells in vitro. Percent growth of HCT116 wt and HCT116 MTAP^−/− cells upon PRMT5 knockdown (+dox), with or without PRMT5 wt or R368A mutant rescue, versus no knockdown (no dox) control in a 10-day soft agar colony growth assay. Colonies were stained with crystal violet and then quantified using Li-Cor (mean±SD, n=3). (C) Immunoblot analysis of the indicated proteins in HCT116 MTAP^−/− and HCT116 MTAP wt cells stably expressing PRMT5 shRNA and shRNA-resistant PRMT5 wt cDNA or PRMT5 R368A catalytically-dead mutant cDNA. (D) Immunoblot analysis of symmetric di-methylarginine marks in HCT116 MTAP^−/− and HCT116 MTAP wt cells stably expressing PRMT5 shRNA and p-LVX empty vector control (EV), or PRMT5 shRNA and shRNA-resistant PRMT5 wt cDNA or PRMT5 R368A catalytically-dead mutant cDNA. (E) Dose response analysis with EPZ015666 titrated from 20 μM top dose in HCT116 MTAP wt vs. HCT116 MTAP^−/− cells. Cells were treated with EPZ015666 for 5 days and their response to the compound is measured as fold growth of treated cells vs. untreated control (mean±SD, n=3). […]

[2] = system: PRMT5-dependent di-methylarginine marks in HCT116 isogenic pair; assay: Immunoblot of PRMT5-dependent di-methylarginine marks; type: cell-based; settings: MTAP−/− and wt HCT116 cells, 5 days
Excerpt: as §1

T1 sequence (O14744 whole entry): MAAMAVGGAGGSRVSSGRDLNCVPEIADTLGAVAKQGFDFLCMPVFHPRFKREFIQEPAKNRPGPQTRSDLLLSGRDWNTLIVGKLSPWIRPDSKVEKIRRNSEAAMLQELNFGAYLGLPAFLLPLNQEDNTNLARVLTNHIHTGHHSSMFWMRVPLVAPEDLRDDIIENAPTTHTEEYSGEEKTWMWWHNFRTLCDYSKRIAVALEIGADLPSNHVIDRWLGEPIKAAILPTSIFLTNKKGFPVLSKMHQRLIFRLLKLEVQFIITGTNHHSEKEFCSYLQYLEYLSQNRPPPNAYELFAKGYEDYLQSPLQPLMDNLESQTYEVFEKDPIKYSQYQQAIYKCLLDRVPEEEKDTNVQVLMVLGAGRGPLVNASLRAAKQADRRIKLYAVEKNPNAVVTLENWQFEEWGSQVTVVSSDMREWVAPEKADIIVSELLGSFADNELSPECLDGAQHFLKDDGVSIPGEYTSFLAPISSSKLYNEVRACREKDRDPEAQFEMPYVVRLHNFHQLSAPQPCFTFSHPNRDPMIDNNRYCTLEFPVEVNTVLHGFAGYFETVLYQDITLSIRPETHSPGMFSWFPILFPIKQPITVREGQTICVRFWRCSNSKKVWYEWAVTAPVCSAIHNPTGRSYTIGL
T1 sequence (Q9BQA1 whole entry partner): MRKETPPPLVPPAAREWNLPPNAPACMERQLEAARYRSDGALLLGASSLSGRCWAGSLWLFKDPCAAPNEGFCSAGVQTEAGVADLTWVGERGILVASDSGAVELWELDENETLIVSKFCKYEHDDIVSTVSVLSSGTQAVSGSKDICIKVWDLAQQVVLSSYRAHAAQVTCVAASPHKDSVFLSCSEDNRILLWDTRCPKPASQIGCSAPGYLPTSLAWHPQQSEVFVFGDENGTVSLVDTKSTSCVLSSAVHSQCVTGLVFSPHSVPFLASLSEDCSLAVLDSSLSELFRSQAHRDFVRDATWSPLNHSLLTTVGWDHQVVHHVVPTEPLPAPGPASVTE

CSC[C@H]1O[C@@H](n2cnc3c(N)ncnc32)[C@H](O)[C@@H]1O [MTA, methylthioadenosine]
IC50 (PRMT5; biochemical assay, read-out: PRMT5 IC50 for MTA): 3000 nM
Ki (PRMT5; read-out: MTA Ki for PRMT5): 460 nM

O=C(NC[C@H](O)CN1CCc2ccccc2C1)c1cc(NC2COC2)ncn1 [EPZ015666]
MTAP selectivity of growth inhibition [1]: not selective for the MTAP-deficient genetic background
MTAP selectivity of growth inhibition ([1]; listed as EPZ-015666): did not lead to selective growth inhibition in MTAP-null cells
PRMT5 activity inhibition (PRMT5-dependent di-methylarginine marks in total cell lysates) [2]: equal degree of PRMT5 activity inhibition
